Experimental data: patent US20240197869A1, “HYPERACTIVATORS OF MAMMALIAN DENDRITIC CELLS” (Corner Therapeutics, Inc., priority 2021, published 2024)
“Also recorded” adds a separate entry of the source.

Assays:
[1] = system: murine, FLT3L-differentiated DC; test: Antigen uptake and presentation assay; format: cell-based, mouse
Method: Antigen uptake and presentation assay. To examine antigen uptake and the endocytic ability of BMDCs, pHrodo™ Red Dextran 10,000 MW was used (ThermoFisher). Briefly, FLT3L-derived BMDCs previously cultured with media alone, or treated for 24 hours with R848 alone or in combination with 22:0 Lyso PC, were incubated with pHrodo™ Red Dextran (40 ug/ml) for 45 minutes at 37° C., or at 4° C. (as a control for surface binding of the antigen). BMDCs were then washed and stained with Live/Dead Fixable Violet dye (ThermoFisher) to distinguish living cells from dead cells. Cells were then fixed with BD fixation solution and resuspended in MACS buffer. Red (APC) fluorescence of live cells was measured by flow cytometry. Fluorescence values of BMDCs incubated at 37° C. were reported as Mean Fluorescence Intensity (MFI) of pHrodo™ Red Dextran associated cells as normalized to MFI of pHrodo™ Red Dextran associated cells incubated at 4° C. To measure the efficiency of OVA peptide presentation on MHC-I, FLT3L-BMDCs were treated as described above and incubated with Endofit-OVA protein (0.5 mg/ml) for 1 hour at 37° C. […] The percentage of cells associated with the OVA peptide on MHC-I was calculated by flow cytometry. Data were acquired on a Symphony A3 flow cytometer (Becton-Dickenson) and analyzed with FlowJo software (Becton-Dickenson). […]

[2] = Solubility of 22:0 Lyso PC (observation); format: physicochemical
[3] = system: human monocyte-derived dendritic cells (moDCs); test: DAMP screen: IL-1β secretion by LPS-activated human moDCs (ELISA); format: cell-based
non-human primate PBMCs = test: Cytokine secretion by non-human primate PBMCs (LegendPlex); format: cell-based, cynomolgus macaques
Method: Non-human primate PBMC hyperactivation. Whole blood from cynomolgus macaques was diluted with an equal volume of PBS. A solution of 90% Ficoll-Paque PLUS and 10% RPMI was made, and diluted whole blood was overlayed on top of the diluted Ficoll. Cells were centrifuged at 1000 rcf for 30 minutes at room temperature with no brakes. The buffy coat layer was collected and washed twice with PBS. If red blood cell contamination was present, cells were incubated in ACK lysis buffer for 2 minutes before being washed with PBS to remove lysed red blood cells.
Isolated PBMC were plated at 1×10^6 cells/well and cultured with or without hyperactivating stimuli. After 2 days incubation, cells were assessed for viability, and cell culture supernatant was used to measure cytokine output. Commercially available kits such as Biolegend LegendPlex kits were used as directed by manufacturer's protocol to quantify cytokines of interest.
PBMC were obtained from 13 cynomolgus macaques. Each activation condition was tested in triplicate, and the mean value of the triplicate is graphed for the animal sample. Repeated measures one-way ANOVA was used to test for statistical significance followed by Dunnett's multiple comparisons test.

human PBMCs = test: Cytokine secretion (IL-1β, IFNγ, TNFα) by human PBMCs; format: cell-based
Method: Isolation of PBMCs from Whole Blood. PBMCs were isolated from whole blood using density gradient centrifugation with Ficoll-Paque PLUS (Cytivia). Whole blood was diluted 1:1 with PBS, layered on top of Ficoll-Paque PLUS and centrifuged at 1000×g for 30 minutes at room temperature. PBMCs were collected, washed twice in PBS, and incubated with Ack lysis buffer (Lonza) to remove any remaining red blood cells.
Cell Culture and Stimulation. […] Cells were plated at 1×10^5 (canine cells) or 1×10^6 (human cells) per well in 96-well flat bottom tissue culture plates. Lyophilized Vaccigrade R848 (Invivogen) was reconstituted and diluted according to manufacturer's recommendations and added to cells at a final concentration of 1 μg/mL.
Quantification of Cytokine Secretion. IL-1β secretion from human PBMCs was assessed using one of the following kits: ELISA MAX Deluxe Set Human IL-1β kit (Biolegend), Invitrogen Human IL-1β kit, or the Lumit™ Human IL-1β Immunoassay (Promega). IFNγ secretion from human PBMCs was assessed using the ELISA MAX Deluxe Set Human IFNγ (Biolegend) and TNFα secretion from human PBMCs was assessed using the Human TNFα Uncoated ELISA kit (Invitrogen). ELISAs were performed according to manufacturer's instructions with the following modifications: i) total sample+buffer volume for incubation was reduced from 100 μL to 50 μL; ii) the top standard was prepared at […], with two-fold dilutions to […]; and iii) sample incubation was completed overnight at 4 C on an orbital shaker. Lumit™ assays were performed according to manufacturer's instructions. IL-1β secretion from canine PBMCs was assessed using the Canine IL-1β/IL-1F2 DuoSet ELISA (R&D) according to manufacturer's instructions with the following modifications: i) total sample+buffer volume for incubation was reduced from 100 μL to 50 μL; ii) sample incubation was completed overnight at 4° C. on an orbital shaker. For all ELISAs, absorbance was measured at 450 nm, with a 570 nm correction, using a Spectramax M5e plate reader (Molecular Devices). For Lumit™ assays, luminescence was measured on all wavelengths using a Spectramax M5e plate reader (Molecular Devices) with an integration time of 500 ms. To determine cytokine concentrations in supernatants, sample concentrations were interpolated using a standard curve via 4PL analysis on GraphPad Prism 9 (GraphPad Software). The interpolated results of samples were then adjusted for any dilutions made to the supernatant.

[4] = 82.5 uM lipid + R848 vs R848 alone, 2 days
[5] = lipid combined with R848, 2 days

CCCCCCCCCCCCCCCCCCCCCC(=O)OC[C@@H](O)COP(=O)([O-])OCC[N+](C)(C)C [22:0 LYSO PC, 1-behenoyl-2-hydroxy-sn-glycero-3-phosphocholine]
OVA antigen processing and cross-presentation on MHC-I (in words) ([1]; R848 + lipid): did not interfere with these functions
antigen uptake (Red pHrodo dextran) (in words) ([1]; R848 with vs without lipid, 24 h): does not compromise the antigen uptake capacity of DCs
solubility in aqueous solution (in words) [2]: mostly insoluble in aqueous solution
solubility in alcohols (in words) ([2]; ethanol or methanol): soluble in ethanol or methanol
IL-1β secretion ([3]; 41.3 μM lipid + LPS 1 μg/mL, 2 days, Table 1-2): 1904.2 pg/mL
IL-1β secretion ([3]; 82.5 μM lipid + LPS, selected lipids, Table 1-3 (repeats Table 1-1)): 2130.9 pg/mL
cytokine fold changes relative to R848 alone (in words) (non-human primate PBMCs; 41.3 uM lipid + R848): not as markedly increased
IL-1beta output (in words) (non-human primate PBMCs; 82.5 uM lipid + R848 1 μg/mL vs R848 alone, 2 days): increased the IL-1beta output
IFN-beta secretion (in words) (non-human primate PBMCs; [4]): increased
IFN-gamma secretion (in words) (non-human primate PBMCs; [4]): significantly increased
IL-8 secretion (in words) (non-human primate PBMCs; [4]): increased
IL-17a secretion (in words) (non-human primate PBMCs; [4]): increased
IL-23 secretion (in words) (non-human primate PBMCs; [4]): increased
IL-1β secretion (in words) (human PBMCs; lipid 82.5 μM combined with R848 1 μg/mL, 2 days): elevated; also recorded: comparable or higher
IFNγ secretion, fold change per donor relative to R848 alone (in words) (human PBMCs; [5]): highest fold change per donor; also recorded: comparable or higher
TNFα secretion, fold change per donor relative to R848 alone (in words) (human PBMCs; [5]): highest fold change per donor; also recorded: comparable or higher
